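48-hour exposure; five concentrations; linearly interpolated endpoints. TGI: concentration producing complete growth inhibition.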
Tests used:
Experiment in all cases: growth of human tumour cells (NCI), 48 h
[1] = tested on: OVCAR-3 ovarian
[2] = tested on: UO-31 renal
[3] = tested on: HT29 colon
[4] = tested on: SNB-19 CNS
[5] = tested on: SF-268 CNS
[6] = tested on: NCI-H460 lung
[7] = tested on: SW-620 colon
[8] = tested on: CAKI-1 renal
[9] = tested on: SF-295 CNS
[10] = tested on: KM12 colon
[11] = tested on: K-562 leukemia
[12] = tested on: SR leukemia
[13] = tested on: SK-MEL-2 melanoma
[14] = tested on: NCI-H522 lung
[15] = tested on: PC-3 prostate
[16] = tested on: DU-145 prostate
[17] = tested on: MCF7 breast
[18] = tested on: MDA-N

Structure (SMILES) | TGI [1] | TGI [2] | TGI [3] | TGI [4] | TGI [5] | TGI [6] | TGI [7] | TGI [8] | TGI [9] | TGI [10] | TGI [11] | TGI [12] | TGI [13] | TGI [14] | TGI [15] | TGI [16] | TGI [17] | TGI [18]
O=C(Cc1ccccc1)NN1C(=O)C(Cl)C1c1ccc([N+](=O)[O-])cc1 (configuration not stated) | > 100 µM | > 100 µM | > 100 µM | > 100 µM | > 100 µM | > 100 µM | > 100 µM | > 100 µM | > 100 µM | > 100 µM | > 100 µM | > 100 µM | > 100 µM | 76.3 µM | – | – | – | –
CSc1nc(-c2ccc(C)cc2)c(C#N)c(=O)[nH]1 | > 100 µM | > 100 µM | > 100 µM | > 100 µM | > 100 µM | > 100 µM | > 100 µM | > 100 µM | > 100 µM | > 100 µM | > 100 µM | – | > 100 µM | > 100 µM | > 100 µM | > 100 µM | > 100 µM | –
Cc1nc2ccc(F)cc2c2c1CCO2 | – | > 100 µM | > 100 µM | > 100 µM | > 100 µM | > 100 µM | > 100 µM | 96 µM | > 100 µM | > 100 µM | > 100 µM | > 100 µM | > 100 µM | > 100 µM | – | > 100 µM | – | > 100 µM
COc1ccc(N(C)Sc2ccccc2)cc1 | > 100 µM | > 100 µM | – | > 100 µM | > 100 µM | > 100 µM | > 100 µM | – | > 100 µM | > 100 µM | > 100 µM | > 100 µM | > 100 µM | > 100 µM | – | – | – | –
CCN(CC)c1ccc(C2SCC(=O)N2c2ccc(NC(=O)c3ccc(N4C(=O)CSC4c4ccc(N(CC)CC)cc4)cc3)cc2)cc1 (configuration not stated) | > 100 µM | > 100 µM | > 100 µM | > 100 µM | > 100 µM | > 100 µM | > 100 µM | > 100 µM | > 100 µM | > 100 µM | > 100 µM | – | > 100 µM | > 100 µM | > 100 µM | > 100 µM | > 100 µM | –
Nc1ccc(C(=O)NN2C(=O)C(Cl)C2c2cc(Br)ccc2O)cc1 (configuration not stated) | > 100 µM | > 100 µM | > 100 µM | > 100 µM | > 100 µM | > 100 µM | > 100 µM | > 100 µM | > 100 µM | > 100 µM | > 100 µM | – | – | 38.5 µM | – | – | – | –
CN(C(=O)c1ccc(Cl)cc1)C(=S)N1CCN(c2ccccn2)CC1 | > 100 µM | > 100 µM | > 100 µM | > 100 µM | > 100 µM | > 100 µM | > 100 µM | > 100 µM | > 100 µM | > 100 µM | > 100 µM | > 100 µM | > 100 µM | > 100 µM | – | – | – | –
C=CCN(N=O)C(=O)N(CCCC(NC(C)=O)C(=O)NCc1ccccc1)Cc1ccccc1 (configuration not stated) | > 100 µM | > 100 µM | 82.4 µM | > 100 µM | > 100 µM | > 100 µM | > 100 µM | 83.9 µM | > 100 µM | > 100 µM | > 100 µM | – | > 100 µM | 84.8 µM | – | – | – | –

From PubChem BioAssay (NCI)
